“Also recorded” adds a separate entry of the source.
Key:
[1] = test system: Human red blood cells (RBCs); assay: Hemolysis assay; type: cell-based; settings: endosomal pH 5.5, 37 C, one hour
Procedure: Human red blood cells (RBCs, Innovative Research) were washed twice with 1×PBS and diluted in either 1×PBS or citrate buffer saline at pH 5.5 (CBS, 20 mM citrate buffer, 130 mM NaCl) to a 4% v/v RBC solution. In a v-bottom, 96-well plate, 100 μL of blank LNPs formulated at an equivalent concentration of 23.75 ng siRNA/μL (no siRNA was used) were added to 100 μL of the 4% v/v RBC solution in either PBS or CBS and heated to 37° C. for one hour. After cooling, the plate was centrifuged at 4° C. at 1000×g for 5 minutes. 100 μL of the supernatant was transferred into a clear 96-well assay plate and the UV absorption was read 540 nm. Positive and negative control experiments were carried out with 0.1% Triton-X (100%) and buffer alone, respectively.

HeLa cells [2] = assay: Confocal microscopy of LNPs with FRET-labeled siRNA probes; type: cell-based; settings: 50 ng FRET-labeled probes, one hour
Procedure: HeLa cells were seeded at 1.5×10^4 cells per well in black (clear bottom) 96-well plates (Greiner Bio-one) and incubated for 24 hours prior to transfection. The cells were then transfected with the inventive LNPs containing 50 ng of FRET-labeled probes for one hour. The cells were washed, fixed, and counterstained in PBS containing Hoechst (2 μg/mL) for nuclei identification. The cells were then imaged using an automated spinning disk confocal microscope (OPERA, Perkin Elmer) with a 40× objective. The exposure rates were maintained constant for individual fluorophores across the 96-well plate. The images were acquired from the Acapella software with a 20 μm scale bar.

[3] = 6-p-toluidinyl-naphthalene-2-sulfonate (TNS) assay, apparent pKa of the LNPs; type: physicochemical; settings: TNS fluorescence titration pH 2.5 to 8.5, fully formulated LNP
Procedure: 6-p-toluidinyl-naphthalene-2-sulfonate (TNS) Assay
A series of buffers with pH ranging between 2.5 and 8.5 were prepared by adjusting the pH of a solution containing 10 mM citrate, 10 mM phosphate, 10 mM borate, and 150 mM NaCl with 1N HCl. 90 μL of each buffer solution was added to a 96-well plate. A 300 μM stock solution of TNS was prepared in DMSO and 2 μL of this solution was added to the buffer solutions in the 96 well plate. After formulation, 10 μL of an LNP solution (prepared without siRNA) was added to the above mixture such that the synthesized lipid concentration (not co-lipids) in the final mixture was […]. The fluorescence of the resulting solution was obtained on a Tecan Safire 2 Microplate reader using an excitation wavelength of 325 nm and an emission wavelength of 435 nm. The fluorescence signal was plotted against pH and fitted using a three-parameter logistic equation (GraphPad Prism v.5.0a, GraphPad Software, San Diego Calif. USA). The pH value at which half of the maximum fluorescence is reached was reported as the apparent pKa of the LNPs.

[4] = test system: HeLa cells stably modified to constitutively express both firefly and Renilla luciferases; assay: In vitro transfection: firefly luciferase silencing by LNP-siRNA (Dual-Glo); type: cell-based; settings: LNPs with anti-firefly luciferase siRNA, serum containing media, 24 hours
Procedure: Lipid nanoparticles were formulated by mixing an equal volume of an ethanolic solution of a lipid of the invention (e.g., a compound of the invention) and an […] at pH 3 to give a 5:1 synthesized lipid:siRNA ratio. The resulting solution was then diluted in an equal volume of 1× phosphate-buffered saline (PBS). The ethanolic lipid solution contained a mixture of synthesized lipids, cholesterol (Sigma Aldrich), 1,2-distearoyl-sn-glycero-3-phosphocholine (DSPC, Avanti Polar Lipids, Alabaster, Ala.) and mPEG2000-DMG (MW 2660, Alnylam Pharmaceuticals, Cambridge, Mass.) at a molar ratio of 50:38.5:10:1.5 in 200-proof ethanol. For all studies, the ethanolic lipid and siRNA solutions were hand mixed via pipette. The LNPs for in vivo use were also dialyzed for 75 minutes against 1×PBS in 3500 MW cut-off (MWCO) cassettes (Pierce/Thermo Scientific, Rockford, Ill.) prior to use.
In vitro transfection was performed on HeLa cells stably modified to constitutively express both firefly and Renilla luciferases. Cells were maintained at 37° C. in a 5% CO2 atmosphere in high glucose Dulbelco modified Eagles medium without phenol red (Invitrogen, Carlsbad, Calif.) supplemented with 10% fetal bovine serum (FBS, Invitrogen). Prior to transfection, 15,000 cells were seeded in white 96-well plates and allowed to attach overnight. On the day of transfection, the media was replaced with 90 μL of fresh media. LNPs were formulated at a concentration of 10 ng/μL and diluted with 1×PBS to obtain the desired concentration. For example, to achieve a transfection of 25 ng of siRNA per well, the 10 ng/μL stock was diluted 1:4 to give 2.5 ng/μL, and 10 μL of this solution was added to the cells in 90 μL of media. Lipofectamine (RNAiMAX) was used according to the manufacturer's instructions as a positive control. Relative firefly luciferase silencing was assessed approximately 24 hours after LNP addition using a Dual-Glo luciferase assay kit (Promega, Madison, Wis.). The firefly luciferase values were normalized to the Renilla luciferase values in order to correct for potential toxicity and/or off-target effects. All experiments were carried out in sextuplicates.

HeLa cells [5] = assay: Intracellular FRET with FRET-labeled siRNA probes (flow cytometry); type: cell-based; settings: early time point after transfection
Procedure: (§1) Extracellular/Intracellular Fluorescence Resonance Energy Transfer (FRET) Assays and Cellular Uptake
(§2) LNPs containing an equimolar mixture of siRNAs labeled with Alexa Fluor® 594 and Alexa Fluor® 647 were diluted to 10 ng siRNA/μL with 1×PBS and added to a black 96-well plate pre-plated with 20,000 HeLa cells at 37° C. Control wells contained LNPs with 1% Triton-X. To measure the FRET, the samples were excited at 540 nm, and the fluorescence intensity was read at 690 and 620 nm using a Tecan Safire 2 Microplate reader at 37° C. FRET was determined as the ratio of the fluorescence intensities at 690/620 nm. FRET signals for all LNPs were normalized to that of the control wells. For extracellular FRET experiments, an identical experiment was carried out without cells, and the FRET data obtained were similar. […] The trypsined cells were then neutralized with 120 μL of quenching media (25% cell culture media in 1×PBS) and transferred to a 96-well v-bottom plate and analyzed via flow cytometry. For each sample, 10,000 events were monitored and evaluated by a BD LSR II HTS flow cytometer (BD Bioscience). […] For cell uptake studies, LNPs formulated with just Alexa Fluor® 647 were analyzed using settings for the Alexa Fluor® 647 channel: exciation via a 633 nm (red, HeNe) laser and emission via a 660/20 nm filter.

HeLa cells [6] = assay: Cellular uptake of LNPs with Alexa Fluor 647 siRNA (flow cytometry); type: cell-based; settings: two hours incubation, serum containing media
Procedure: as §1, §2

[7] = Dynamic light scattering, particle size; type: physicochemical
Procedure: After formulation, the LNPs-siRNA were diluted with 1×PBS to a final siRNA concentration of 2 μg/mL. The average particle size was measured via dynamic light scattering on a Malvern Zetasizer Nano ZS (Malvern Instruments, Worcestershire, UK). All experiments were carried out in triplicates.

## CCCCCCCCCCSCC(COC(=O)CCN(CCC(=O)OCC(CSCCCCCCCCCC)SCCCCCCCCCC)CCN(C)C)SCCCCCCCCCC (centres unmarked) [I-3]
[1]
  LNP-mediated hemolysis of RBCs at pH 5.5: hemolytic
HeLa cells [2]
  intracellular location of LNPs: located near the cell membrane and inside endocytic vesicles; also recorded: reside in the endocytic vesicles

## CCCCCCCCCCSCC(COC(=O)CCN(CCCn1ccnc1)CCC(=O)OCC(CSCCCCCCCCCC)SCCCCCCCCCC)SCCCCCCCCCC (centres unmarked) [I-20]
[3]
  LNP pKa: low LNP pKa values
[4]
  in vitro gene silencing (firefly luciferase, Luc/Ren): poor gene silencing

## CCCCCCCCCCSCC(COC(=O)CCN(CCC(=O)OCC(CSCCCCCCCCCC)SCCCCCCCCCC)CCN1CCS(=O)(=O)CC1)SCCCCCCCCCC (centres unmarked) [I-28]
[3]
  LNP pKa: low LNP pKa values
HeLa cells [5]
  intracellular FRET signal (uptake of intact LNPs): did not give an intracellular FRET signal
HeLa cells [6]
  cellular uptake: relatively high uptake
[4]
  in vitro gene silencing (firefly luciferase, Luc/Ren): limited gene silencing performance

## CCCCCCCCCCSCC(COC(=O)CCN(CCC(=O)OCC(CSCCCCCCCCCC)SCCCCCCCCCC)CCc1ccccn1)SCCCCCCCCCC (centres unmarked) [I-13]
[3]
  LNP pKa: low LNP pKa values
[4]
  in vitro gene silencing (firefly luciferase, Luc/Ren): poor gene silencing

## CCCCCCCCCCSCC(COC(=O)CCN(CCC(=O)OCC(CSCCCCCCCCCC)SCCCCCCCCCC)C1CCN(Cc2ccccc2)C1)SCCCCCCCCCC (centres unmarked) [I-30]
[3]
  LNP pKa: low LNP pKa values
[4]
  in vitro gene silencing (firefly luciferase, Luc/Ren): poor gene silencing

## CCCCCCCCCCSCC(COC(=O)CCN(CCC(=O)OCC(CSCCCCCCCCCC)SCCCCCCCCCC)CCC1CCCC1)SCCCCCCCCCC (centres unmarked) [I-18]
[4]
  in vitro gene silencing (firefly luciferase, Luc/Ren): poor gene silencing; also recorded: unable to silence the target gene
[7]
  particle size / nanoparticle formation: able to form nanoparticles

## CCCCCCCCCCSCC(COC(=O)CCN(CCCN(CC)CC)CCC(=O)OCC(CSCCCCCCCCCC)SCCCCCCCCCC)SCCCCCCCCCC (centres unmarked) [I-2]
[1]
  LNP-mediated hemolysis of RBCs at pH 5.5: hemolytic
HeLa cells [2]
  intracellular location of LNPs: located near the cell membrane and inside endocytic vesicles; also recorded: reside in the endocytic vesicles

## CCCCCCCCCCSCC(COC(=O)CCN(CCC(=O)OCC(CSCCCCCCCCCC)SCCCCCCCCCC)CCN(C(C)C)C(C)C)SCCCCCCCCCC (centres unmarked) [I-4]
[3]
  LNP pKa: low pKa values
HeLa cells [5]
  intracellular FRET signal (uptake of intact LNPs): did not give an intracellular FRET signal
HeLa cells [6]
  cellular uptake: relatively high uptake
[4]
  in vitro gene silencing (firefly luciferase, Luc/Ren): poor gene silencing; also recorded: limited gene silencing performance
[4]; listed as 4
  in vitro gene silencing (firefly luciferase, Luc/Ren): low gene silencing

## CCCCCCCCCCSCC(COC(=O)CCN(CCCN(CCCC)CCCC)CCC(=O)OCC(CSCCCCCCCCCC)SCCCCCCCCCC)SCCCCCCCCCC (centres unmarked) [I-6]
[3]
  LNP pKa: low pKa values
[4]
  in vitro gene silencing (firefly luciferase, Luc/Ren): poor gene silencing
[4]; listed as 6
  in vitro gene silencing (firefly luciferase, Luc/Ren): low gene silencing

## CCCCCCCCCCSCC(COC(=O)CCN(CCCN1CCCN(C)CC1)CCC(=O)OCC(CSCCCCCCCCCC)SCCCCCCCCCC)SCCCCCCCCCC (centres unmarked) [I-21]
[3]
  LNP pKa: low pKa values
[4]
  in vitro gene silencing (firefly luciferase, Luc/Ren): poor gene silencing
[4]; listed as 21
  in vitro gene silencing (firefly luciferase, Luc/Ren): low gene silencing

## CCCCCCCCCCSCC(COC(=O)CCN(CCC(=O)OCC(CSCCCCCCCCCC)SCCCCCCCCCC)C1CCN(Cc2ccccc2)CC1)SCCCCCCCCCC (centres unmarked) [I-29]
[3]
  LNP pKa: low LNP pKa values
[4]
  in vitro gene silencing (firefly luciferase, Luc/Ren): poor gene silencing

Source: patent US9895443B2, “Multi-tailed lipids and uses thereof” (Massachusetts Institute of Technology, priority 2013, dated 2018)
